Assay results from PubChem BioAssay AID2060910 (Molecular Pharmacology Branch, DTP, NCI, 2025).

Tested on: 242566-281-R-J2-PDC complex spheroid viability
Experiment: Anticancer human tumor 242566-281-R-J2-PDC patient-derived pancreatic carcinoma cell line growth inhibition [RAS]
Settings: for IC50: curve of first compound; for viability, T/C: stronger effect = lower value; active means viability on the fitted dose curve at most 10% of control; inactive means the rest
In short: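 Tumour cells grown as complex spheroids with HUVEC endothelial cells and mesenchymal stem cells, treated with RAS pathway inhibitor combinations. Each agent spans half-log steps from near clinical Cmax, or 10 microM where Cmax is unknown.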

[1] = second compound 0.00316 µM, first compound 0.0316 µM
[2] = second compound 0.00316 µM, first compound 0.1 µM
[3] = second compound 0.00316 µM, first compound 0.316 µM
[4] = second compound 0.00316 µM, first compound 1 µM
[5] = second compound 0.01 µM, first compound 0.0316 µM
[6] = second compound 0.01 µM, first compound 0.1 µM
[7] = second compound 0.01 µM, first compound 0.316 µM
[8] = second compound 0.01 µM, first compound 1 µM
[9] = second compound 0.0316 µM, first compound 0.00316 µM
[10] = second compound 0.0316 µM, first compound 0.01 µM
[11] = second compound 0.0316 µM, first compound 0.0316 µM
[12] = second compound 0.0316 µM, first compound 0.1 µM
[13] = second compound 0.0316 µM, first compound 0.316 µM
[14] = second compound 0.0316 µM, first compound 1 µM
[15] = second compound 0.1 µM, first compound 0.00316 µM
[16] = second compound 0.1 µM, first compound 0.01 µM
[17] = second compound 0.1 µM, first compound 0.0316 µM
[18] = second compound 0.1 µM, first compound 0.1 µM
[19] = second compound 0.1 µM, first compound 0.316 µM
[20] = second compound 0.1 µM, first compound 1 µM
[21] = second compound 0.316 µM, first compound 0.00316 µM
[22] = second compound 0.316 µM, first compound 0.01 µM
[23] = second compound 0.316 µM, first compound 0.0316 µM
[24] = second compound 0.316 µM, first compound 0.1 µM
[25] = second compound 0.316 µM, first compound 0.316 µM
[26] = second compound 0.316 µM, first compound 1 µM
[27] = second compound 1 µM, first compound 0.00316 µM
[28] = second compound 1 µM, first compound 0.01 µM
[29] = second compound 1 µM, first compound 0.0316 µM
[30] = second compound 1 µM, first compound 0.1 µM
[31] = second compound 1 µM, first compound 0.316 µM
[32] = second compound 1 µM, first compound 1 µM
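Further: spheroids exposed to compound for 7 days before readout.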
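Wherever viability, T/C is given: 100% = DMSO vehicle control wells.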

O=C(c1ccc(F)c(F)c1Nc1ccc(I)cc1F)N1CC(O)([C@@H]2CCCCN2)C1 + C=CC(=O)N1CCN(c2nc(OCC3CCCN3C)nc3c(F)c(-c4nc(N)cc(C)c4C(F)(F)F)c(Cl)cc23)C(C)C1
inactive: viability, T/C (second compound 0.00316 µM, first compound 0.00316 µM) 91.4% | viability, T/C (second compound 0.00316 µM, first compound 0.01 µM) 116% | viability, T/C [1] 92.6% | viability, T/C [2] 64.8% | viability, T/C [3] 48% | viability, T/C [4] 43.9% | viability, T/C (second compound 0.01 µM, first compound 0.00316 µM) 92.5% | viability, T/C (second compound 0.01 µM, first compound 0.01 µM) 116% | viability, T/C [5] 79.7% | viability, T/C [6] 73.5% | viability, T/C [7] 53.5% | viability, T/C [8] 47.4% | viability, T/C [9] 104% | viability, T/C [10] 117% | viability, T/C [11] 80.2% | viability, T/C [12] 74.6% | viability, T/C [13] 52.9% | viability, T/C [14] 42.1% | viability, T/C [15] 103% | viability, T/C [16] 104% | viability, T/C [17] 94.4% | viability, T/C [18] 70.6% | viability, T/C [19] 60.6% | viability, T/C [20] 43% | viability, T/C [21] 103% | viability, T/C [22] 113% | viability, T/C [23] 68.3% | viability, T/C [24] 70.7% | viability, T/C [25] 61% | viability, T/C [26] 48.7% | viability, T/C [27] 101% | viability, T/C [28] 112% | viability, T/C [29] 97.9% | viability, T/C [30] 73.4% | viability, T/C [31] 45.8% | viability, T/C [32] 44.6%
436 nM: IC50 (second compound 0.0316 µM)
281 nM: IC50 (second compound 1 µM)
677 nM: IC50 (second compound 0.01 µM)
> 1000 nM: IC50 (second compound 0.316 µM)
260 nM: IC50 (second compound 0.00316 µM)
593 nM: IC50 (second compound 0.1 µM)

CC(C)NCC(C(=O)N1CCN(c2ncnc3c2C(C)CC3O)CC1)c1ccc(Cl)cc1 (stereo unspecified) + C=CC(=O)N1CCN(c2nc(OCC3CCCN3C)nc3c(F)c(-c4nc(N)cc(C)c4C(F)(F)F)c(Cl)cc23)C(C)C1
inactive: viability, T/C [1] 115% | viability, T/C [2] 99.9% | viability, T/C [3] 106% | viability, T/C [4] 90.6% | viability, T/C (second compound 0.00316 µM, first compound 3.16 µM) 81.9% | viability, T/C (second compound 0.00316 µM, first compound 10 µM) 84.9% | viability, T/C [5] 100% | viability, T/C [6] 122% | viability, T/C [7] 102% | viability, T/C [8] 98.7% | viability, T/C (second compound 0.01 µM, first compound 3.16 µM) 91.2% | viability, T/C (second compound 0.01 µM, first compound 10 µM) 89.3% | viability, T/C [11] 107% | viability, T/C [12] 117% | viability, T/C [13] 90.9% | viability, T/C [14] 93.1% | viability, T/C (second compound 0.0316 µM, first compound 3.16 µM) 90.9% | viability, T/C (second compound 0.0316 µM, first compound 10 µM) 86.2% | viability, T/C [17] 91.8% | viability, T/C [18] 104% | viability, T/C [19] 95.1% | viability, T/C [20] 89.1% | viability, T/C (second compound 0.1 µM, first compound 3.16 µM) 87.5% | viability, T/C (second compound 0.1 µM, first compound 10 µM) 77.7% | viability, T/C [23] 98.6% | viability, T/C [24] 114% | viability, T/C [25] 97.5% | viability, T/C [26] 88% | viability, T/C (second compound 0.316 µM, first compound 3.16 µM) 88% | viability, T/C (second compound 0.316 µM, first compound 10 µM) 81.2% | viability, T/C [29] 99.6% | viability, T/C [30] 133% | viability, T/C [31] 107% | viability, T/C [32] 101% | viability, T/C (second compound 1 µM, first compound 3.16 µM) 77.6% | viability, T/C (second compound 1 µM, first compound 10 µM) 82.9%
> 10000 nM: IC50 (second compound 0.00316 µM) | IC50 (second compound 0.01 µM) | IC50 (second compound 0.0316 µM) | IC50 (second compound 0.1 µM) | IC50 (second compound 0.316 µM) | IC50 (second compound 1 µM)

C=CC(=O)N1CCN(c2nc(OCC3CCCN3C)nc3c(F)c(-c4nc(N)cc(C)c4C(F)(F)F)c(Cl)cc23)C(C)C1 (stereo unspecified) + C#Cc1c(F)ccc2cc(O)cc(-c3ncc4c(N5CC6CCC(C5)N6)nc(OCC56CCCN5CC(F)C6)nc4c3F)c12
inactive: viability, T/C [9] 95.7% | viability, T/C [10] 113% | viability, T/C [11] 95.9% | viability, T/C [12] 66.7% | viability, T/C [13] 71.1% | viability, T/C [14] 91.7% | viability, T/C [15] 83.9% | viability, T/C [16] 90.8% | viability, T/C [17] 79.9% | viability, T/C [18] 57.2% | viability, T/C [19] 75.3% | viability, T/C [20] 76.5% | viability, T/C [21] 80% | viability, T/C [22] 74.6% | viability, T/C [23] 60.1% | viability, T/C [24] 62.3% | viability, T/C [25] 56.5% | viability, T/C [26] 63.3% | viability, T/C [27] 60.6% | viability, T/C [28] 61.9% | viability, T/C [29] 48.4% | viability, T/C [30] 50.7% | viability, T/C [31] 56.1% | viability, T/C [32] 61% | viability, T/C (second compound 3.16 µM, first compound 0.00316 µM) 56.4% | viability, T/C (second compound 3.16 µM, first compound 0.01 µM) 56.8% | viability, T/C (second compound 3.16 µM, first compound 0.0316 µM) 40.5% | viability, T/C (second compound 3.16 µM, first compound 0.1 µM) 51.1% | viability, T/C (second compound 3.16 µM, first compound 0.316 µM) 52.5% | viability, T/C (second compound 3.16 µM, first compound 1 µM) 54.5% | viability, T/C (second compound 10 µM, first compound 0.00316 µM) 51.2% | viability, T/C (second compound 10 µM, first compound 0.01 µM) 53.2% | viability, T/C (second compound 10 µM, first compound 0.0316 µM) 46.8% | viability, T/C (second compound 10 µM, first compound 0.1 µM) 48.6% | viability, T/C (second compound 10 µM, first compound 0.316 µM) 57.3% | viability, T/C (second compound 10 µM, first compound 1 µM) 53.4%
29.9 nM: IC50 (second compound 3.16 µM)
> 1000 nM: IC50 (second compound 0.0316 µM) | IC50 (second compound 0.1 µM) | IC50 (second compound 0.316 µM) | IC50 (second compound 1 µM) | IC50 (second compound 10 µM)
